Reference: patent US9802960B2 (MILLENNIUM PHARMACEUTICALS, INC., priority 2014, dated 2017)
Read-outs that look alike come from different tables or passages of the source.

Target: Human VPS34 (Homo sapiens (Human), UniProt Q8NEB9)
Experiment: Human VPS34 enzyme assay (Adapta TR-FRET)
Format: biochemical
Conditions: for inhibition at 1.11 µM: read-out: Percent Inhibition

Chain of Human VPS34 (Q8NEB9 whole entry): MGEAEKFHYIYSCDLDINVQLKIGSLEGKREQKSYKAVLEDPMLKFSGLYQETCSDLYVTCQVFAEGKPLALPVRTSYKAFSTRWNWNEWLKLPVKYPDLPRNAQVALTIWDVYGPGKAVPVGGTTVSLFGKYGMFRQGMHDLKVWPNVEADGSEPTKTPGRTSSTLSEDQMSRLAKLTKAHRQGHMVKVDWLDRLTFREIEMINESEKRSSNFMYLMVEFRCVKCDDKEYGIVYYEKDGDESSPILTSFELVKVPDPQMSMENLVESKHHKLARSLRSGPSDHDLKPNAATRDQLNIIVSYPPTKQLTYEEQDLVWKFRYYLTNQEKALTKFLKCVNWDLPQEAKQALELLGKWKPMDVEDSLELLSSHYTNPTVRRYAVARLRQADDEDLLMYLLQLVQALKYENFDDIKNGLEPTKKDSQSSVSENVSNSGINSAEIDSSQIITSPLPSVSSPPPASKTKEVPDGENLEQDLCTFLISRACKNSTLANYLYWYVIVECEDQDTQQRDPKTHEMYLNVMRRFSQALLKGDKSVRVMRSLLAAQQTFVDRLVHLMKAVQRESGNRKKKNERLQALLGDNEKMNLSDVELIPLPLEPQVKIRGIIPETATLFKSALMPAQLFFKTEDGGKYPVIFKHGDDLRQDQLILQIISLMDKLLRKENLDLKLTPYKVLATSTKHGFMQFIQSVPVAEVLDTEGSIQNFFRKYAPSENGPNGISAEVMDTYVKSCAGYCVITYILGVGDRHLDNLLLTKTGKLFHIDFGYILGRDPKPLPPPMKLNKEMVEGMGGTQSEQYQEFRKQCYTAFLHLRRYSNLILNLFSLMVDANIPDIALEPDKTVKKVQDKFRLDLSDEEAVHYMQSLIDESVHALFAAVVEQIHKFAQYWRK

Row | inhibition at 1.11 µM (compound concentration 1.11 μM) | Structure (SMILES) | further results
1 | 97% | CC(=O)Nc1cc(-c2cncc(S(=O)(=O)NC3C4CC5CC(C4)CC3C5)c2)ccn1 (stereo not shown) [Compound I-318, N-[5-(adamantan-2-ylsulfamoyl)-3,4′-bipyridin-2′-yl]acetamide] | –
2 | 94% | CC(=O)Nc1cc(-c2cnc(C)c(N(CCO)S(=O)(=O)c3ccc(F)cc3F)c2)ccn1 [Compound I-319, N-(5-{[(2,4-difluorophenyl)sulfonyl](2-hydroxyethyl)amino}-6-methyl-3,4′-bipyridin-2′-yl)acetamide] | –
3 | 95% | CC(=O)Nc1cc(-c2cncc(N3CCCCS3(=O)=O)c2)ccn1 [Compound I-320, N-[5-(1,1-dioxido-1,2-thiazinan-2-yl)-3,4′-bipyridin-2′-yl]acetamide] | –
4 | > 99% | CC(=O)Nc1cc(-c2cncc(S(=O)(=O)NCc3ccccc3)c2)ccn1 [Compound I-321, N-[5-(benzylsulfamoyl)-3,4′-bipyridin-2′-yl]acetamide] | –
5 | 96% | CC(=O)Nc1cc(-c2cnc(C)c(NS(=O)(=O)c3cccc(F)c3Cl)c2)ccn1 [Compound I-322, N-(5-{[(2-chloro-3-fluorophenyl)sulfonyl]amino}-6-methyl-3,4′-bipyridin-2′-yl)acetamide] | –
6 | 73% | CC(=O)Nc1cc(-c2cnc(N)c(N3CCCN(C)S3(=O)=O)c2)ccn1 [Compound I-323, N-[6-amino-5-(6-methyl-1,1-dioxido-1,2,6-thiadiazinan-2-yl)-3,4′-bipyridin-2′-yl]acetamide] | –
7 | > 99% | Cc1ncc(-c2ccnc(NC(=O)OCC3(C)COC3)c2)cc1NS(=O)(=O)c1ccc(F)cc1F [Compound I-324, (3-methyloxetan-3-yl)methyl (5-{[(2,4-difluorophenyl)sulfonyl]amino}-6-methyl-3,4′-bipyridin-2′-yl)carbamate] | –
8 | > 99% | CNC1CN(c2cc(-c3ccnc(NC(C)=O)c3)cnc2C)S(=O)(=O)C1 (stereo not shown) [Compound I-325, N-{6-methyl-5-[4-(methylamino)-1,1-dioxidoisothiazolidin-2-yl]-3,4′-bipyridin-2′-yl}acetamide] | –
9 | 96% | Cc1ncc(-c2ccnc(NC(=O)OCc3ccn(C)n3)c2)cc1NS(=O)(=O)c1ccc(F)cc1F [Compound I-326, (1-methyl-1H-pyrazol-3-yl)methyl (5-{[(2,4-difluorophenyl)sulfonyl]amino}-6-methyl-3,4′-bipyridin-2′-yl)carbamate] | –
10 | > 99% | COc1ncc(-c2ccnc(NC(C)=O)c2)cc1S(=O)(=O)Nc1cccc(C(F)(F)F)c1 [Compound I-329, N-(6-methoxy-5-{[3-(trifluoromethyl)phenyl]sulfamoyl}-3,4′-bipyridin-2′-yl)acetamide] | –
11 | – | CC(=O)Nc1cc(-c2cnc(Cl)c(S(=O)(=O)N[C@H](CO)c3ccccc3)c2)ccn1 [Compound I-330, N-(6-chloro-5-{[(1S)-2-hydroxy-1-phenylethyl]sulfamoyl}-3,4′-bipyridin-2′-yl)acetamide] | Percent Inhibition (compound concentration 1.11 μM): >99%
12 | 93% | COc1ncc(-c2ccnc(NC(C)=O)c2)cc1N(C)C(=O)c1ccc(F)cc1F [Compound I-331, N-(2′-acetamido-6-methoxy-3,4′-bipyridin-5-yl)-2,4-difluoro-N-methylbenzamide] | –
13 | > 99% | COC(=O)Nc1cc(-c2cncc(S(=O)(=O)N3CCOCC3)c2)ccn1 [Compound I-332, methyl[5-(morpholin-4-ylsulfonyl)-3,4′-bipyridin-2′-yl]carbamate] | –
14 | > 99% | CC(=O)Nc1cc(-c2cnc(Cl)c(NS(=O)(=O)c3ccc(C(F)(F)F)cc3Cl)c2C)ccn1 [Compound I-333, N-(6-chloro-5-(2-chloro-4-(trifluoromethyl)phenylsulfonamido)-4-methyl-[3,4′-bipyridin]-2′-yl)acetamide] | –
15 | 82% | CC(=O)Nc1cc(-c2cnc3c(c2)S(=O)(=O)N[C@@H](c2ccccc2)CO3)ccn1 [Compound I-334, (S)-N-[4-(1,1-dioxido-3-phenyl-3,4-dihydro-2H-pyrido[2,3-b][1,4,5]oxathiazepin-8-yl)pyridin-2-yl]acetamide] | –
16 | 92% | CC(=O)Nc1cc(-c2cnc(Cl)c(NS(=O)(=O)c3ccc(C4CC4)cc3F)c2C)ccn1 [Compound I-335, N-(6-chloro-5-{[(4-cyclopropyl-2-fluorophenyl)sulfonyl]amino}-4-methyl-3,4′-bipyridin-2′-yl)acetamide] | –
17 | 96% | Cc1nccc(Nc2cc(-c3cncc(C(C)Oc4ccccc4Cl)c3)ccn2)n1 (stereo not shown) [Compound I-336, 5-[1-(2-chlorophenoxy)ethyl]-N-(2-methylpyrimidin-4-yl)-3,4′-bipyridin-2′-amine] | –
18 | 52% | CC(=O)Nc1cc(-c2cnc(N)c(N3CCCC3=O)c2)ccn1 [Compound I-337, N-[6-amino-5-(2-oxopyrrolidin-1-yl)-3,4′-bipyridin-2′-yl]acetamide] | –
19 | > 99% | CC(=O)Nc1cc(-c2cncc(S(=O)(=O)NC3CC3)c2)ccn1 [Compound I-338, N-[5-(cyclopropylsulfamoyl)-3,4′-bipyridin-2′-yl]acetamide] | –
20 | 98% | CC(=O)Nc1cc(-c2cnc(C)c(NS(=O)(=O)c3cccc(C)c3F)c2)ccn1 [Compound I-339, N-(5-{[(2-fluoro-3-methylphenyl)sulfonyl]amino}-6-methyl-3,4′-bipyridin-2′-yl)acetamide] | –
21 | 91% | CC(=O)Nc1cc(-c2cc(NS(=O)(=O)c3ccc(F)cc3F)c3ncnn3c2)ccn1 [Compound I-340, N-[4-(8-{[(2,4-difluorophenyl)sulfonyl]amino}[1,2,4]triazolo[1,5-a]pyridin-6-yl)pyridin-2-yl]acetamide] | –
22 | – | CC(=O)Nc1cc(-c2cnc(C)c(NS(=O)(=O)N3CCCCCC3)c2)ccn1 [Compound I-341, N-{5-[(azepan-1-ylsulfonyl)amino]-6-methyl-3,4′-bipyridin-2′-yl}acetamide] | inhibition at 1.11 µM: > 99%
23 | > 99% | CC(=O)Nc1cc(-c2cnc(C)c(N3CCCN(C)S3(=O)=O)c2)ccn1 [Compound I-343, N[6-methyl-5-(6-methyl-1,1-dioxido-1,2,6-thiadiazinan-2-yl)-3,4′-bipyridin-2′-yl]acetamide] | –
24 | > 99% | COc1ncc(-c2ccnc(NC(C)=O)c2)cc1S(=O)(=O)Nc1ccc(Cl)cc1Cl [Compound I-344, N-{5-[(2,4-dichlorophenyl)sulfamoyl]-6-methoxy-3,4′-bipyridin-2′-yl}acetamide] | –
25 | 95% | Cc1nccc(Nc2cc(-c3cnc(C)c(C(=O)N(C)c4ccc(F)cc4F)c3)ccn2)n1 [Compound I-346, N-(2,4-difluorophenyl)-N,6-dimethyl-2′-[(2-methylpyrimidin-4-yl)amino]-3,4′-bipyridine-5-carboxamide] | –
26 | 22% | COc1ncc(-c2ccnc(NC(C)=O)c2)cc1NC(=O)c1ccc(F)cc1F [Compound I-347, N-(2′-acetamido-6-methoxy-3,4′-bipyridin-5-yl)-2,4-difluorobenzamide] | –
27 | > 99% | CC(=O)Nc1cc(-c2cncc(NS(=O)(=O)N(C)C)c2)ccn1 [Compound I-348, N-{5-[(dimethylsulfamoyl)amino]-3,4′-bipyridin-2′-yl}acetamide] | –
28 | 94% | Cc1nccc(Nc2cc(-c3cncc(C(C)OCc4ccccn4)c3)ccn2)n1 (stereo not shown) [Compound I-349, N-(2-methylpyrimidin-4-yl)-5-[1-(pyridin-2-ylmethoxy)ethyl]-3,4′-bipyridin-2′-amine] | –
